Results reported in patent publication US20230301966A1, “METHOD OF ENHANCING 5-HYDROXYTRYPTOPHAN (5-HTP) EXPOSURE” (Evecxia Therapeutics, Inc., priority 2021, published 2023).
Read-outs that look alike come from different tables or passages of the source.

Tests used:
[1] = cited from earlier work
[2] = cited from earlier work; remark: listed apart in the source
[3] = PK simulation to steady-state at twice-daily dosing by non-parametric superposition (NPS); design: species or system human; conditions: plasma 5-HTP, steady-state at twice-daily administration
Excerpt: Given this T½ for 5-HTP and the known metabolism of 5-HTP by AAAD, non-parametric superpositioning (NPS) pharmacokinetic modeling can be applied to predict steady-state 5-HTP plasma exposure. NPS is an established method known in the field to generally predict steady-state plasma levels of an active pharmaceutical compound. NPS assumes that each dose of an active pharmaceutical compound is metabolized independently of other doses; that the rate and extent of absorption and average systemic clearance are the same for each dosing interval; and that linear pharmacokinetics apply. Based on NPS, the steady-state 5-HTP plasma exposure would be expected to be about 0.25-fold higher (to total about 1.25-fold) than that observed after single-administration. Further, given the T½, steady-state plasma exposure would, according to standard assumptions, be expected to be reached within 5-6 half-lives, i.e., about 1 day.
Plasma pharmacokinetics parameters were estimated using standard Phoenix WinNonlin methods. Data are presented as geometric mean ± SEM. The 5-HTP plasma profiles after single tablet administration of “fast” 5-HTP (250 mg) / low-dose carbidopa (15 mg) tablets following either an FDA high-fat high-calorie meal versus after an FDA moderate-fat, moderate-calorie meal are shown in FIG. 6B. […]

[4] = Single-dose pharmacokinetic evaluation of gastroretentive tablets in human healthy volunteers (Example 5); type: in vivo; conditions: plasma, oral, 250 mg, single administration, high-fat meal
Method: The “fast” 5-HTP (250 mg) / low-dose carbidopa (0.625 mg, 2.5 mg, 5 mg, or 15 mg) gastroretentive tablets were administered orally to subjects from a cohort totaling 16 healthy subjects in a 5-period open label pharmacokinetics study. The subjects’ mean age was ~50 years (33 to 60 years). All were Caucasian, 11 males, 5 females. Average weight was ~80 kg and all body mass index (BMI) < 32.0 kg/m^2. The subjects were admitted to a clinic during the study. The swelling layer of the tablets was radiolabelled with ≤1 MBq ^111In to allow for parallel scintigraphic location of the tablets in the gastrointestinal tract. The tablets were administered in the morning, one tablet per administration, after ingestion of≥80% of the breakfast. Tablets were administered with 210 mL water followed by a radiolabelled drink (radiocontrast) containing NMT 4 MBq technetium-99m-diethylene triaminepentaacetic acid (99mTc-DTPA) in 30 mL of water. […]
In the first 4 periods, the tablets were administered after a standardized FDA high-fat, high-calorie meal (FDA, 2022), in order of increasing doses of carbidopa. […] The 5-HTP and carbidopa in the plasma were analyzed by liquid-chromatography-mass spectrometry. […]
Carbidopa plasma was below lower limit of quantification (1 ng/ml) at all timepoints at the 0.625 mg carbidopa dose strength, and for most time points at the 2.5 mg carbidopa dose strength. […]

[5] = Excipient compatibility of 5-HTP and carbidopa blends, storage at 40° C; type: physicochemical; conditions: for 5-HTP Impurities at T= 1 month (%) Total / Carbidopa Impurities at T= 1 month (%) Total / 5-HTP Impurities at T= 1 month (%) LSI / Carbidopa Impurities at T= 1 month (%) LSI: 1 month at 40° C; for 5-HTP Impurities at T=7 (%) Total / Carbidopa Impurities at T=7 (%) Total / 5-HTP Impurities at T=7 (%) LSI / Carbidopa Impurities at T=7 (%) LSI: 7 days at 40° C; for 5-HTP Impurities at T= 1 month (%) LSI / Carbidopa Impurities at T= 1 month (%) LSI / 5-HTP Impurities at T=7 (%) LSI / Carbidopa Impurities at T=7 (%) LSI / 5-HTP Impurities at T=0 (%) LSI / Carbidopa Impurities at T=0 (%) LSI: largest single impurity
Method: Excipient compatibility studies were performed to examine the stability of 5-HTP and carbidopa mixed together, either the two APIs alone or in the presence of one or two excipients. The stability (assay and level of impurities) was tested using small aliquots of 5-HTP (300 mg) and carbidopa (25 mg) blended together, with or without together excipients. The API/excipient ratios were based on the approximate composition of gastroretentive tablets of 5-HTP and carbidopa in Table 1. There were no significant increases in the levels of impurities for any of the API/excipient(s) combinations at T=0, 7 days and 1 month of storage at 40° C. The maximum percentage increase (largest single impurity) for carbidopa was 0.44%, 0.55%, and 0.86% at T=0, 7 days and 1 month, respectively. The maximum percentage increase for 5-HTP was 0.27%, 0.48%, and 0.49% at T=0, 7 days and 1 month, respectively.

Row | Compound | 5-HTP Impurities at T= 1 month (%) Total [5] [%] | Carbidopa Impurities at T= 1 month (%) Total [5] [%] | 5-HTP Impurities at T=7 (%) Total [5] [%] | Carbidopa Impurities at T=7 (%) Total [5] [%] | 5-HTP Impurities at T=0 (%) Total [5] [%] | Carbidopa Impurities at T=0 (%) Total [5] [%] | 5-HTP Impurities at T= 1 month (%) LSI [5] [%] | Carbidopa Impurities at T= 1 month (%) LSI [5] [%] | 5-HTP Impurities at T=7 (%) LSI [5] [%] | Carbidopa Impurities at T=7 (%) LSI [5] [%] | 5-HTP Impurities at T=0 (%) LSI [5] [%] | Carbidopa Impurities at T=0 (%) LSI [5] [%] | aqueous solubility [2] | also measured
1 | C[C@@](Cc1ccc(O)c(O)c1)(NN)C(=O)O [carbidopa] | – | – | – | – | – | – | – | – | – | – | – | – | ~ 1.5 mg/ml | T½ ([1]; known value): 1 to 2 h
2 | N[C@@H](Cc1c[nH]c2ccc(O)cc12)C(=O)O [Sample 5-HTP, 5-hydroxytryptophan] | – | – | – | – | – | – | – | – | – | – | – | – | ~ 15 mg/ml | Relative steady-state average plasma exposure (average ng/ml gastroretentive /average ng/ml immediate release) [3]: 1; half-life ([4]; read-out: Elimination half-life (Average) 5-HTP (converted)): 2.9 h; Tmax ([4]; read-out: TMax (Average) 5-HTP): 1 h; 5-HTP plasma exposure ([1]; 200 mg/day carbidopa with 1,150-2,900 mg/day 5-HTP, separate IR dosage forms, after 8-54 months (Magnussen and Van Woert, 1982b)): 2,000-10,000 ng/ml; Tmax ([1]; native 5-HTP immediate release): ~ 1 h; half-life T½ ([1]; native 5-HTP immediate release): ~ 2 h; oral bioavailability ([1]; native 5-HTP immediate release, one study (WO2019245925)): ~ 20%; bioavailability in the colon ([1]; one study (WO2019245925)): ~ 4%; bioavailability in the upper intestine ([1]; one study (WO2019245925)): ~ 20%
3 | N[C@@H](Cc1ccc(O)c(O)c1)C(=O)O [L-DOPA] | – | – | – | – | – | – | – | – | – | – | – | – | – | time for L-DOPA plasma exposure to reach steady-state ([1]; L-DOPA/carbidopa therapy, 600-1200 mg/day and 120-150 mg/day): less than 12 h

The next lines start with results.

Row | 5-HTP Impurities at T= 1 month (%) Total [5] [%] | Carbidopa Impurities at T= 1 month (%) Total [5] [%] | 5-HTP Impurities at T=7 (%) Total [5] [%] | Carbidopa Impurities at T=7 (%) Total [5] [%] | 5-HTP Impurities at T=0 (%) Total [5] [%] | Carbidopa Impurities at T=0 (%) Total [5] [%] | 5-HTP Impurities at T= 1 month (%) LSI [5] [%] | Carbidopa Impurities at T= 1 month (%) LSI [5] [%] | 5-HTP Impurities at T=7 (%) LSI [5] [%] | Carbidopa Impurities at T=7 (%) LSI [5] [%] | 5-HTP Impurities at T=0 (%) LSI [5] [%] | Carbidopa Impurities at T=0 (%) LSI [5] [%] | Compound | aqueous solubility [2] | also measured
4 | 0.00 | 0.79 | 0.00 | 0.45 | 0.00 | 0.41 | 0.00 | 0.27 | 0.00 | 0.28 | 0.00 | 0.27 | C[C@@](Cc1ccc(O)c(O)c1)(NN)C(=O)O [Sample 18, Carbidopa (control)] | – | –
5 | 0.26 | 0.00 | 0.23 | 0.00 | 0.23 | 0.00 | 0.12 | 0.00 | 0.12 | 0.00 | 0.13 | 0.00 | N[C@@H](Cc1c[nH]c2ccc(O)cc12)C(=O)O [Sample 17, 5-HTP (control)] | – | –
